Results from patent publication EP4745137A1 (Gluetacs Therapeutics (Shanghai) Co., Ltd., priority 2023, dated 2025).

Tests used:
[1] = target: T1, WEE1 (Homo sapiens, UniProt P30291+Q96SW2); assay: Western-blot assay of substrate protein degradation in hPBMCs, WEE1; assay type: cell-based; conditions: 24 hours of compound treatment
T1 construct: endogenous in cells; host or cells: hPBMCs (Milecell Biotechnologies)

[2] = target: T2, IKZF1 (Homo sapiens, UniProt Q13422+Q96SW2); assay: Western-blot assay of substrate protein degradation in hPBMCs, IKZF1; assay type: cell-based; conditions: 24 hours of compound treatment
T2 construct: endogenous in cells; host or cells: hPBMCs (Milecell Biotechnologies)

[3] = target: T3, IKZF2 (Homo sapiens, UniProt Q96SW2+Q9UKS7); assay: Western-blot assay of substrate protein degradation in hPBMCs, IKZF2; assay type: cell-based; conditions: 24 hours of compound treatment
T3 construct: endogenous in cells; host or cells: hPBMCs (Milecell Biotechnologies)

[4] = target: T4, IKZF3 (Homo sapiens, UniProt Q96SW2+Q9UKT9); assay: Western-blot assay of substrate protein degradation in hPBMCs, IKZF3; assay type: cell-based; conditions: 24 hours of compound treatment
T4 construct: endogenous in cells; host or cells: hPBMCs (Milecell Biotechnologies)

[5] = target: T5, CK1α (Homo sapiens, UniProt P48729+Q96SW2); assay: Western-blot assay of substrate protein degradation in hPBMCs, CK1α; assay type: cell-based; conditions: 24 hours of compound treatment
T5 construct: endogenous in cells; host or cells: hPBMCs (Milecell Biotechnologies)

[6] = target: T6, GSPT1 (Homo sapiens, UniProt P15170+Q96SW2); assay: Western-blot assay of substrate protein degradation in hPBMCs, GSPT1; assay type: cell-based; conditions: 24 hours of compound treatment
T6 construct: endogenous in cells; host or cells: hPBMCs (Milecell Biotechnologies)

[7] = target: T7, human Cereblon WT GST-tagged protein (Homo sapiens, UniProt Q96SW2); assay: CRBN-binding affinity by HTRF (CEREBLON BINDING kit); conditions: HTRF inhibitory activity, CEREBLON BINDING kit; read-out: HTRF IC50
T7 construct: purchased CISBIO 64BDCRBNPEH

[8] = compounds tested at 50 nM and 500 nM (concentration of the table not stated)
[9] = 50 nM and 500 nM tested (concentration behind the class not stated)

T1 sequence (P30291 whole entry): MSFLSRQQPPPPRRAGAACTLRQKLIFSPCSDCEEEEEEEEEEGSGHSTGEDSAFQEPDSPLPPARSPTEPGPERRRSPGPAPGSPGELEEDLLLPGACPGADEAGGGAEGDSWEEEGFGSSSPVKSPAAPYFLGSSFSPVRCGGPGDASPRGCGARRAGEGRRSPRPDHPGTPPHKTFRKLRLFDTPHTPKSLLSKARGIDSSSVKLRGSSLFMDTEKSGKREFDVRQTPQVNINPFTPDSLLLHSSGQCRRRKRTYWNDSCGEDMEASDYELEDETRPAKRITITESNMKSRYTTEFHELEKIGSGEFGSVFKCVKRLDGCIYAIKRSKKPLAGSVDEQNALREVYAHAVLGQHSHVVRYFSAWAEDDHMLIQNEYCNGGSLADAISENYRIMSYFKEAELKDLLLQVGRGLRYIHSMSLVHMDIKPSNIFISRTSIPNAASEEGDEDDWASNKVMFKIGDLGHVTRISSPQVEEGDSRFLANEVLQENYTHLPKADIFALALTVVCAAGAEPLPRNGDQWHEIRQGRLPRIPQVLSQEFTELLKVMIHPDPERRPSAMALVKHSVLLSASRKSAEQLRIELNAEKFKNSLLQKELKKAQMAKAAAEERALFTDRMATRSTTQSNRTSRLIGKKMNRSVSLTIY
T1 sequence (Q96SW2 whole entry): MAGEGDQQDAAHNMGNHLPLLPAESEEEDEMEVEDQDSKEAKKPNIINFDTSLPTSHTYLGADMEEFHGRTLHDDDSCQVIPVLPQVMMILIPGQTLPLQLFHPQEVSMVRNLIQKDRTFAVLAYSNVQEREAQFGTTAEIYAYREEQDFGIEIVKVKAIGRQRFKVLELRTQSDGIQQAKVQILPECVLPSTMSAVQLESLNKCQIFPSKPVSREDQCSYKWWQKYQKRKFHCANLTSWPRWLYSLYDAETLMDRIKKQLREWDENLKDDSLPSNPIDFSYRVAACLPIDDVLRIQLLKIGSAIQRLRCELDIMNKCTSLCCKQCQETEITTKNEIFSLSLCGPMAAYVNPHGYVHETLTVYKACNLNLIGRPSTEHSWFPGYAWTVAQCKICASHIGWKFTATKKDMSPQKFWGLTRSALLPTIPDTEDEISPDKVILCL
T1 sequence (Q16531 whole entry partner): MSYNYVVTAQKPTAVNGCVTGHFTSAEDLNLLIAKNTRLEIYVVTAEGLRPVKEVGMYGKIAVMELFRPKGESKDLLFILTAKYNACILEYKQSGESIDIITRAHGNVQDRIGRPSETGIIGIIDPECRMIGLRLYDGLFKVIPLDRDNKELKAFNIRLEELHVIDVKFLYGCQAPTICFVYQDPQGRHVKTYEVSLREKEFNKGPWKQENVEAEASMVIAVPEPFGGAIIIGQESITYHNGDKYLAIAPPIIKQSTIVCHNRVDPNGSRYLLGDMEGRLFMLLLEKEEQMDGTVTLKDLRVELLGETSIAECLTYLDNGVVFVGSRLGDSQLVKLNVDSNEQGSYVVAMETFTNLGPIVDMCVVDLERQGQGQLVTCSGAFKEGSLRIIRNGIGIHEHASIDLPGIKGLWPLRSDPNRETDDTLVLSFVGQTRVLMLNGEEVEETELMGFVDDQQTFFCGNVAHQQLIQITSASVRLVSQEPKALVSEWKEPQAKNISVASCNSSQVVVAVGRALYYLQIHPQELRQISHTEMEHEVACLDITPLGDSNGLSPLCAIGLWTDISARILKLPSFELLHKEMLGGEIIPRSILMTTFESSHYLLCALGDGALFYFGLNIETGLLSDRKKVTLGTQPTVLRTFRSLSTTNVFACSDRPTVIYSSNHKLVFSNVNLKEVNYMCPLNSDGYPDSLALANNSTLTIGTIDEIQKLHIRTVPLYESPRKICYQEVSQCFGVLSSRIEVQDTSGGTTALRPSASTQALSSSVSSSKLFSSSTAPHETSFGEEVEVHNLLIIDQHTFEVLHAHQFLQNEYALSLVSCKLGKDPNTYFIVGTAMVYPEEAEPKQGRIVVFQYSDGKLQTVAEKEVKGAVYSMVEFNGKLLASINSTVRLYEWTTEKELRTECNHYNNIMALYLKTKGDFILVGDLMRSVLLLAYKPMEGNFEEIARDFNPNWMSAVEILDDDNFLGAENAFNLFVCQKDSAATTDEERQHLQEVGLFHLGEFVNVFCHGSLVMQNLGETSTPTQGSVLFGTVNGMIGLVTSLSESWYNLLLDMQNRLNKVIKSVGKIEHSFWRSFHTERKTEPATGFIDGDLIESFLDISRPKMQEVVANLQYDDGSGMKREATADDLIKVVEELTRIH
T3 sequence (Q9UKS7 whole entry): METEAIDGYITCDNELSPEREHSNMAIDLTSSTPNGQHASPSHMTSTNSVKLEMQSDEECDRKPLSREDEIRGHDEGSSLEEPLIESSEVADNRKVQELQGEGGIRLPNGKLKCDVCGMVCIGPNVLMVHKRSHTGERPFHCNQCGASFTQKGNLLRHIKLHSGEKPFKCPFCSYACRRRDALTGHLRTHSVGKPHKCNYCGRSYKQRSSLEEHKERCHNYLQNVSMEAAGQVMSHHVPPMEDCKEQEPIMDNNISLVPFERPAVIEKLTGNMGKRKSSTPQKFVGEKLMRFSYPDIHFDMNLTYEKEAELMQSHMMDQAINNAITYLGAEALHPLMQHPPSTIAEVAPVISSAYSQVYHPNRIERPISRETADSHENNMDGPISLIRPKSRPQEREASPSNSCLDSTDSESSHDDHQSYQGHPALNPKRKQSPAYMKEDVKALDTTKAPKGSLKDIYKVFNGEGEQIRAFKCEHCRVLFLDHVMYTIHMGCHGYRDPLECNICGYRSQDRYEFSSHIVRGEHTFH
T3 sequence (Q96SW2 whole entry): as the sequence (Q96SW2 whole entry) above
T3 sequence (Q16531 whole entry partner): as the sequence (Q16531 whole entry partner) above
T6 sequence (P15170 whole entry): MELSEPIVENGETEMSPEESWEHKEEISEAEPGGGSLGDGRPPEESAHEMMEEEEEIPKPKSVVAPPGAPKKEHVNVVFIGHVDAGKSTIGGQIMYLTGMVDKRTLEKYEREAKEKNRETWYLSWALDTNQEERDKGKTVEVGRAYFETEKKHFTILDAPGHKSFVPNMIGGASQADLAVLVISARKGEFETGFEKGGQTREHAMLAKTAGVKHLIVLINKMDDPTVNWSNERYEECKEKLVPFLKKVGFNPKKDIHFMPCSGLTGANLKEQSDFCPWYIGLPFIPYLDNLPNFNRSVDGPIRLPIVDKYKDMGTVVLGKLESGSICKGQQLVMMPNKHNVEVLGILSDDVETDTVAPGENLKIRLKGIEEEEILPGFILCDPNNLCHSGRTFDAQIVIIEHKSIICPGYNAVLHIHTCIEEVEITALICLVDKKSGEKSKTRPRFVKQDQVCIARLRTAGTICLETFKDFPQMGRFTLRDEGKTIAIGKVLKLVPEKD
T6 sequence (Q96SW2 whole entry): as the sequence (Q96SW2 whole entry) above
T6 sequence (Q16531 whole entry partner): as the sequence (Q16531 whole entry partner) above
T4 sequence (Q9UKT9 whole entry): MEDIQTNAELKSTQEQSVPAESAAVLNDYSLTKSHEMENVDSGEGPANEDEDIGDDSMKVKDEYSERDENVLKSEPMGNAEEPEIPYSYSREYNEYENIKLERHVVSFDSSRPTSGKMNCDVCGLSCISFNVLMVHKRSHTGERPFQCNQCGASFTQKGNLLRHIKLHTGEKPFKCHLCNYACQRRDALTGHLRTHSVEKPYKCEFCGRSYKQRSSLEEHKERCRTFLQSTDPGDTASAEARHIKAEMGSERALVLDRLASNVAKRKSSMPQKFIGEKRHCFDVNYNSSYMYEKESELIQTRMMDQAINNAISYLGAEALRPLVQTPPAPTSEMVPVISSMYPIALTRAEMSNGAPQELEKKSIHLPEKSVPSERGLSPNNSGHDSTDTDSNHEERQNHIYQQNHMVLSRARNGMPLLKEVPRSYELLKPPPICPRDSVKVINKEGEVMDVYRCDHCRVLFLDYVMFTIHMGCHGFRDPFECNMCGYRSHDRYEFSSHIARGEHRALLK
T4 sequence (Q96SW2 whole entry): as the sequence (Q96SW2 whole entry) above
T4 sequence (Q16531 whole entry partner): as the sequence (Q16531 whole entry partner) above
T7 sequence (Q96SW2 whole entry): as the sequence (Q96SW2 whole entry) above
T2 sequence (Q13422 whole entry): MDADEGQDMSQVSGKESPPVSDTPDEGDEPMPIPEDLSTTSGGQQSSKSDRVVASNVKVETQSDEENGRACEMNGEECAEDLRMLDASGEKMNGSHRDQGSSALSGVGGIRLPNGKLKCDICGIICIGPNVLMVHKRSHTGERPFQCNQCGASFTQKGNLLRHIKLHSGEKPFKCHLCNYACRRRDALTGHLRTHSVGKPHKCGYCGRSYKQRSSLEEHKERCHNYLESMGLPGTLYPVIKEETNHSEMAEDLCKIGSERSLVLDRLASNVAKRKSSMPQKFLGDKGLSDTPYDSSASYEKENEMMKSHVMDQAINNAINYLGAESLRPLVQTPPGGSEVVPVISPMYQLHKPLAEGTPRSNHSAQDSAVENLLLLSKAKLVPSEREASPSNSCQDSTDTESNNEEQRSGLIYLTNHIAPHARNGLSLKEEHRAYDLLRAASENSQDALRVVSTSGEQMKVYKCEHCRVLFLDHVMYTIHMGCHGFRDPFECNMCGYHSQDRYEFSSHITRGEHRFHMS
T2 sequence (Q96SW2 whole entry): as the sequence (Q96SW2 whole entry) above
T2 sequence (Q16531 whole entry partner): as the sequence (Q16531 whole entry partner) above

Compound | Weel substrate protein remaining % [1, 8] | IKZF 1 substrate protein remaining % [2, 8] | IKZF2 substrate protein remaining % [3, 8] | IKZF3 substrate protein remaining % [4, 8] | CK1a substrate protein remaining % [5, 8] | GSPT1 substrate protein remaining % [6, 8] | IC50 [7] [nM] | Weel substrate protein remaining % [1, 9] | IKZF 1 substrate protein remaining % [2, 9] | IKZF2 substrate protein remaining % [3, 9] | IKZF3 substrate protein remaining % [4, 9] | CK1a substrate protein remaining % [5, 9] | GSPT1 substrate protein remaining % [6, 9]
O=C1CCC(N2Cc3cc(CN4CCC(c5ncc6ccsc6n5)CC4)ccc3C2=O)C(=O)N1 (centres unmarked) [GT-04933, 3-(1-oxo-5-((4-(thieno[2,3-d]pyrimidin-2-yl)piperidin-1-yl)methyl)isoindolin-2-yl)piperidine-2,6-dione] | A (0% ≤ substrate protein remaining % ≤ 80%) | A (0% ≤ substrate protein remaining % ≤ 80%) | A (0% ≤ substrate protein remaining % ≤ 80%) | A (0% ≤ substrate protein remaining % ≤ 80%) | A (0% ≤ substrate protein remaining % ≤ 80%) | A (0% ≤ substrate protein remaining % ≤ 80%) | 500 to 1000 | – | – | – | – | – | –
Cc1cc(N2CCN(Cc3ccc4c(c3)CN(C3CCC(=O)NC3=O)C4=O)CC2)ccn1 (centres unmarked) [GT-04541, 3-(5-((4-(2-methylpyridin-4-yl)piperazin-1-yl)methyl)-1-oxoisoindolin-2-yl)piperidine-2,6-dione] | A (0% ≤ substrate protein remaining % ≤ 80%) | A (0% ≤ substrate protein remaining % ≤ 80%) | A (0% ≤ substrate protein remaining % ≤ 80%) | A (0% ≤ substrate protein remaining % ≤ 80%) | B (80%< substrate protein remaining %≤ 100%) | B (80%< substrate protein remaining %≤ 100%) | 500 to 1000 | – | – | – | – | – | –
O=C1CCC(N2Cc3cc(CN4CCC(n5c(=O)[nH]c6cc(F)ccc65)CC4)ccc3C2=O)C(=O)N1 (centres unmarked) [GT-04714, 3-(5-((4-(5-fluoro-2-oxo-2,3-dihydro-1H-benzo[d]imidazol-1-yl)piperidin-1-yl)methyl)-1-oxoisoindolin-2-yl)piperidine-2,6-dione] | A (0% ≤ substrate protein remaining % ≤ 80%) | A (0% ≤ substrate protein remaining % ≤ 80%) | A (0% ≤ substrate protein remaining % ≤ 80%) | A (0% ≤ substrate protein remaining % ≤ 80%) | A (0% ≤ substrate protein remaining % ≤ 80%) | A (0% ≤ substrate protein remaining % ≤ 80%) | 500 to 1000 | – | – | – | – | – | –
Cc1cc2c(C3CCN(Cc4ccc5c(c4)CN(C4CCC(=O)NC4=O)C5=O)CC3)ncnc2s1 (centres unmarked) [GT-04717, 3-(5-((4-(6-methylthieno[2,3-d]pyrimidin-4-yl)piperidin-1-yl)methyl)-1-oxoisoindolin-2-yl)piperidine-2,6-dione] | B (80%< substrate protein remaining %≤ 100%) | B (80%< substrate protein remaining %≤ 100%) | A (0% ≤ substrate protein remaining % ≤ 80%) | A (0% ≤ substrate protein remaining % ≤ 80%) | B (80%< substrate protein remaining %≤ 100%) | A (0% ≤ substrate protein remaining % ≤ 80%) | 500 to 1000 | – | – | – | – | – | –
Cc1nc(C2CCN(Cc3ccc4c(c3)C(=O)N(C3CCC(=O)NC3=O)C4=O)CC2)c2c(-c3ccccc3)csc2n1 (centres unmarked) [GT-06646, 2-(2,6-dioxopiperidin-3-yl)-5-((4-(2-methyl-5-phenylthieno[2,3-d]pyrimidin-4-yl)piperidin-1-yl)methyl)isoindoline-1,3-dione] | – | – | – | – | – | – | 500 to 1000 | B (80%< substrate protein remaining %≤ 100%) | B (80%< substrate protein remaining %≤ 100%) | B (80%< substrate protein remaining %≤ 100%) | B (80%< substrate protein remaining %≤ 100%) | B (80%< substrate protein remaining %≤ 100%) | A (0% ≤ substrate protein remaining % ≤ 80%)
O=C1CCC(N2Cc3cc(CN4CCN(c5ccc(C(F)(F)F)cn5)CC4)ccc3C2=O)C(=O)N1 (centres unmarked) [GT-04433, 3-(1-oxo-5-((4-(5-(trifluoromethyl)pyridin-2-yl)piperazin-1-yl)methyl)isoindolin-2-yl)piperidine-2,6-dione] | B (80%< substrate protein remaining %≤ 100%) | B (80%< substrate protein remaining %≤ 100%) | B (80%< substrate protein remaining %≤ 100%) | B (80%< substrate protein remaining %≤ 100%) | B (80%< substrate protein remaining %≤ 100%) | A (0% ≤ substrate protein remaining % ≤ 80%) | 1000 to 1500 | – | – | – | – | – | –
O=C1CCC(N2Cc3cc(CN4CCC(c5ncnc6sc7c(c56)CCCC7)CC4)ccc3C2=O)C(=O)N1 (centres unmarked) [GT-05265, 3-(1-oxo-5-((4-(5,6,7,8-tetrahydrobenzo[4,5]thieno[2,3-d]pyrimidin-4-yl)piperidin-1-yl)methyl)isoindolin-2-yl)piperidine-2,6-dione] | B (80%< substrate protein remaining %≤ 100%) | A (0% ≤ substrate protein remaining % ≤ 80%) | A (0% ≤ substrate protein remaining % ≤ 80%) | A (0% ≤ substrate protein remaining % ≤ 80%) | A (0% ≤ substrate protein remaining % ≤ 80%) | A (0% ≤ substrate protein remaining % ≤ 80%) | < 500 | – | – | – | – | – | –
O=C1CCC(N2C(=O)c3ccc(CN4CCC(c5c[nH]c6ncccc56)CC4)cc3C2=O)C(=O)N1 (centres unmarked) [GT-06705, 5-((4-(1H-pyrrolo[2,3-b]pyridin-3-yl)piperidin-1-yl)methyl)-2-(2,6-dioxopiperidin-3-yl)isoindoline-1,3-dione] | – | – | – | – | – | – | 1500 to 1900 | A (0% ≤ substrate protein remaining % ≤ 80%) | B (80%< substrate protein remaining %≤ 100%) | B (80%< substrate protein remaining %≤ 100%) | B (80%< substrate protein remaining %≤ 100%) | B (80%< substrate protein remaining %≤ 100%) | A (0% ≤ substrate protein remaining % ≤ 80%)
